Results: the supplement of paper PMC4862054

Key:
Conditions in all cases: incubation time: 72 h
MDA-MB-453 [1] = assay: normalised response (% of control), CellTox Green; higher = less cell death (100 = DMSO, 0 = benzethonium chloride kill control)
Summary of the method: (§1)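 Each entry is the normalised signal at a single concentration within a series. The series comprised 5 concentrations in 10-fold steps over a compound-specific 10,000-fold range, placed in 384-well plates into which breast cancer cell lines were seeded as 20 µl suspension and incubated 72 h. CellTox Green (485/520 nm) fluorescence and then CellTiter-Glo luminescence were read, with signals normalised per plate to 0.1 % DMSO (100) and a positive kill control (0).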

MDA-MB-436 [2] = assay: as above
Summary of the method: as §1

MFM-223 [3] = assay: as above
Summary of the method: as §1

HCC1599 [4] = assay: as above
Summary of the method: as §1

CAL-51 [5] = assay: as above
Summary of the method: as §1

CAL-148 [6] = assay: as above
Summary of the method: as §1

CAL-85-1 [7] = assay: as above
Summary of the method: as §1

CAL-120 [8] = assay: as above
Summary of the method: as §1

MDA-MB-231 [9] = assay: as above
Summary of the method: as §1

HDQ-P1 [10] = assay: as above
Summary of the method: as §1

DU-4475 [11] = assay: as above
Summary of the method: as §1

MDA-MB-468 [12] = assay: as above
Summary of the method: as §1

BT-549 [13] = assay: as above
Summary of the method: as §1

Hs578T [14] = assay: as above
Summary of the method: as §1

HCC1143 [15] = assay: as above
Summary of the method: as §1

BT-474 [16] = assay: as above
Summary of the method: as §1

HCC1937 [17] = assay: as above
Summary of the method: as §1

MCF-10A [18] = assay: as above
Summary of the method: as §1

MDA-MB-453 [19] = assay: normalised response (% of control), CellTiter-Glo; higher = more viable cells (100 = DMSO, 0 = benzethonium chloride kill control)
Summary of the method: as §1

MDA-MB-436 [20] = assay: as above
Summary of the method: as §1

MFM-223 [21] = assay: as above
Summary of the method: as §1

HCC1599 [22] = assay: as above
Summary of the method: as §1

SK-BR-3 = assay: as above
Summary of the method: as §1

CAL-51 [23] = assay: as above
Summary of the method: as §1

CAL-148 [24] = assay: as above
Summary of the method: as §1

CAL-85-1 [25] = assay: as above
Summary of the method: as §1

CAL-120 [26] = assay: as above
Summary of the method: as §1

MDA-MB-231 [27] = assay: as above
Summary of the method: as §1

HDQ-P1 [28] = assay: as above
Summary of the method: as §1

DU-4475 [29] = assay: as above
Summary of the method: as §1

MDA-MB-468 [30] = assay: as above
Summary of the method: as §1

BT-549 [31] = assay: as above
Summary of the method: as §1

Hs578T [32] = assay: as above
Summary of the method: as §1

HCC1143 [33] = assay: as above
Summary of the method: as §1

BT-474 [34] = assay: as above
Summary of the method: as §1

HCC1937 [35] = assay: as above
Summary of the method: as §1

MCF-10A [36] = assay: as above
Summary of the method: as §1

SMILES | normalised response (MDA-MB-453 [1]) | normalised response (MDA-MB-436 [2]) | normalised response (MFM-223 [3]) | normalised response (HCC1599 [4]) | normalised response (CAL-51 [5]) | normalised response (CAL-148 [6]) | normalised response (CAL-85-1 [7]) | normalised response (CAL-120 [8]) | normalised response (MDA-MB-231 [9]) | normalised response (HDQ-P1 [10]) | normalised response (DU-4475 [11]) | normalised response (MDA-MB-468 [12]) | normalised response (BT-549 [13]) | normalised response (Hs578T [14]) | normalised response (HCC1143 [15]) | normalised response (BT-474 [16]) | normalised response (HCC1937 [17]) | normalised response (MCF-10A [18]) | normalised response (MDA-MB-453 [19]) | normalised response (MDA-MB-436 [20]) | normalised response (MFM-223 [21]) | normalised response (HCC1599 [22]) | normalised response (SK-BR-3) | normalised response (CAL-51 [23]) | normalised response (CAL-148 [24]) | normalised response (CAL-85-1 [25]) | normalised response (CAL-120 [26]) | normalised response (MDA-MB-231 [27]) | normalised response (HDQ-P1 [28]) | normalised response (DU-4475 [29]) | normalised response (MDA-MB-468 [30]) | normalised response (BT-549 [31]) | normalised response (Hs578T [32]) | normalised response (HCC1143 [33]) | normalised response (BT-474 [34]) | normalised response (HCC1937 [35]) | normalised response (MCF-10A [36])
CC(C)NC[C@@H](C(=O)N1CCN(c2ncnc3c2[C@H](C)C[C@H]3O)CC1)c1ccc(Cl)cc1 [GDC-0068] (1000 nM) | 97.8% | 113% | 86.1% | 93.2% | 89.6% | 34.3% | 113% | 99.3% | 106% | 105% | 102% | 95.5% | 90.5% | 101% | 121% | 74.3% | 115% | 74.4% | 53.6% | 89.1% | 31.7% | 103% | 67.2% | 60.5% | 19% | 85.8% | 81.4% | 92.4% | 65.5% | 91.9% | 60.9% | 70.2% | 85.4% | 89.3% | 89.5% | 79% | 82.8%
COc1cc(Nc2ncc(F)c(Nc3ccc4c(n3)N(COP(=O)(O)O)C(=O)C(C)(C)O4)n2)cc(OC)c1OC [Fostamatinib] (250 nM) | 107% | 86.6% | 101% | 92.7% | 92.2% | 93.1% | 106% | 101% | 53.7% | 109% | 100% | 57% | 82.7% | 97.7% | 76.3% | 97.8% | 125% | 102% | 93.7% | 105% | 63.1% | 110% | 98.1% | 105% | 91.4% | 96.1% | 86.9% | 85% | 103% | 94.8% | 90.5% | 93.7% | 91.3% | 95% | 88.2% | 94.9% | 84%
N[C@@H](Cc1ccc(N(CCCl)CCCl)cc1)C(=O)O [Melphalan] (1250 nM) | 25.6% | 84% | 10.1% | 45.5% | -30.1% | 4.59% | -12% | 72.2% | -55.7% | -17.2% | 51.8% | -18.1% | 28.1% | 35.8% | 95.9% | -13.4% | 18.1% | -50.4% | 0.2% | 9.28% | 0.49% | 2.61% | -0.01% | 0.26% | 7.68% | 0.23% | 50% | 0.06% | 1.18% | 0% | 0.81% | 22.1% | 16.4% | 34.5% | 1.75% | 4.2% | 0.24%
CO[C@H]1C[C@@H]2CC[C@@H](C)[C@@](O)(O2)C(=O)C(=O)N2CCCC[C@H]2C(=O)O[C@H]([C@H](C)C[C@@H]2CC[C@@H](O)[C@H](OC)C2)CC(=O)[C@H](C)/C=C(\C)[C@@H](O)[C@@H](OC)C(=O)[C@H](C)C[C@H](C)/C=C/C=C/C=C/1C [Sirolimus] (10 nM) | 107% | 69.6% | 91.1% | 90.7% | 104% | 52.9% | 108% | 105% | 116% | 109% | 102% | 157% | 87.2% | 59.7% | 115% | 94.8% | 97.7% | 104% | 66.2% | 79.1% | 70.9% | 98.8% | 66.4% | 65.5% | 67.1% | 63% | 67.3% | 93.9% | 82.8% | 88.5% | 51.8% | 58.3% | 67.5% | 69.1% | 83.5% | 81.5% | 102%
CC(C)n1nc(-c2ccc3oc(N)nc3c2)c2c(N)ncnc21 [INK128] (100 nM) | 26% | 94.4% | 93.9% | 95.5% | 87.6% | 58.8% | 101% | 97.1% | 108% | 108% | 94% | 137% | 115% | 65.8% | 8.7% | 96.5% | 96.1% | 95.8% | 37.2% | 48.6% | 32.2% | 68% | 22.6% | 29.3% | 32.7% | 35.4% | 30.6% | 50.3% | 42.6% | 66% | 39.5% | 30.7% | 35.1% | 39.9% | 50.4% | 59.7% | 43.5%
